System: Escherichia coli ATCC strain MM294 cells
Assay: Preservation survival of electrocompetent E. coli MM294 cells dried by foam formation (plate count)
Assay type: cell-based
Details: cells loaded with 10% MAG, preserved (dried) by foam formation; average of three independent experiments
Experimental: (1) Preparation of fresh electrocompetent cells: Escherichia coli ATCC strain MM294 cells were grown under standard conditions in L-broth (growth medium for E. coli), at 37° C., with moderate aeration (shaking at 250 rpm). An isolated colony from a fresh streak was inoculated into 5 ml of L-broth and incubated overnight (preculture). The following morning, the preculture was subcultured (1% inoculum) in 100 ml of L-broth+glucose (0.05%-0.5%). The cells were incubated until OD550=0.5 (subculture). At this point, the cells were transferred into 250 ml of L-broth+glucose (0.05%-0.5%) and incubation continued until OD550=0.8. Two flasks with 250 ml of cells were prepared.
When the culture OD550 reached 0.8 (cell density approx. 5×10^8 cfu/ml), the cells were harvested by centrifugation at 2,500 rpm (at room temperature) for 10 minutes. […] Bacterial counts were determined by diluting cells in PBS buffer and spread plating appropriate dilutions in duplicate on L-agar. The plates were incubated at 37° C. overnight and colonies were counted the following day. […]
(5) Assaying the preserved E. coli cells: Dried samples were rehydrated at room temperature. […] Plates were incubated at 37° C. overnight and colonies were counted the following day. […]

COC1OC(CO)C(O)C(O)C1O (centres unmarked) [MAG, a-methyl-glucoside]
Preservation Yield Cfu/ml: 1.1 × 10^10 Cfu/ml | Preservation yield %: 53.5%
